“And” between values parts separate entries of the source, which are not always exact repeats. Equal values may be shown once.
Key:
[1] = molecular target: T1, Lscβ (Pseudomonas syringae pv. actinidiae, UniProt A0A2V0R8Q9); assay: Sucrose hydrolysis assay on recombinant Lscβ (DNS glucose quantification); assay type: biochemical, Pseudomonas syringae pv actinidiae biovar 3 (Psa3); conditions: for % Residual activity (sucrose hydrolysis), Lscβ: 100 μM iminosugar; for % Residual activity (sucrose hydrolysis), Lscβ / IC50: 60 mM sucrose
T1 construct: 6His-tag (TEV-cleavable) (cleaved yes); made in house; host or cells: E. coli BL21 (DE3)
T1 sequence (A0A2V0R8Q9 whole entry): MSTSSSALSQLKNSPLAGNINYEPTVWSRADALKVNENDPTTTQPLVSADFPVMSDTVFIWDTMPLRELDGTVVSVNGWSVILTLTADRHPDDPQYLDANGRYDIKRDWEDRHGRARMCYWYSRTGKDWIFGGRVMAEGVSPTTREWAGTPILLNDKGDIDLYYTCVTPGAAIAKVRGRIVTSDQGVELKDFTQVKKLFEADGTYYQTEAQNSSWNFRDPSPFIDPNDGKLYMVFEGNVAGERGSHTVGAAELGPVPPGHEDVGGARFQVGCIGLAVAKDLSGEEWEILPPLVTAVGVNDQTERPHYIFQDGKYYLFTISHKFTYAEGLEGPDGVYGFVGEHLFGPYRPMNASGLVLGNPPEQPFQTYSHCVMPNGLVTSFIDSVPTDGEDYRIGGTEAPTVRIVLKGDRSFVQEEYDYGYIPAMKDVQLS
Experimental: (§1) Lscβ and Lscγ were produced and purified as reported by Luti et al. 2021. Briefly, the lscβ and lscγ genes of Psa3 KL103 were cloned in the pNIC28-Bsa4 plasmid and used to transform E. coli BL21 (DE3) cells (New England Biolabs). At A 600 (absorbance at 600 nm) = 0.6, protein expression was induced by 0.4 mM IPTG for 20 h at 18 °C. Then, cells were harvested by […], and recombinant proteins were purified using IMAC Sepharose High Performance (Ge Healthcare) charged with Ni^2+. Subsequently, the proteins were subjected to TEV (Tobacco Etch Virus protease) treatment to remove the 6His-tag and further purified by gel chromatography on a HiLoad 16/600 Superdex 200 pg column driven by an Akta Pure 25 L system (GE Healthcare, Waukesha, WI, USA). Pure proteins were stored in 10 mM Tris/HCl at pH 7.0 at −80 °C until further analysis.
The enzymatic assays to detect the inhibitory potential of the compounds on sucrose hydrolysis activity of Lscβ and Lscγ were performed according to Luti et al. 2021 in a total volume of 100 μL, using a Bis/Tris buffer (50 mM, pH 7.0). […] After the reactions were stopped, glucose concentration was measured using the DNS (3,5-dinitrosalicylic acid) method to determine spectrophotometrically the inhibitory activity of each compound. The enzymatic activity, measured as μmol/min·mL, was expressed as %residual enzymatic activity=[Ai/Ac]×100 , where A i is the absorbance of the samples with the inhibitors and A c is the absorbance of the control.
(§2) The inhibition levels of compounds 1–4 were analyzed by measuring their IC50. To quantify the IC50 values, we set up different enzymatic reactions at various concentrations of the inhibitor, and we monitored the effects of such concentrations on the enzymatic activity. The assay system was prepared as described above using a Bis/Tris buffer at pH 7.0 and 60 mM sucrose as the substrate. The inhibitor concentrations tested for both enzymes were 0, 0.01, 0.1, 0.5, 1, 10, 25, 50, 100, 200, 400, and 800 μM. Glucose released by the two enzymes was quantified using the DNS method and a microplate spectrophotometer. IC50 was defined as the concentration of a compound causing 50% inhibition, and it was calculated by drawing a dose–response graph for each compound using GraphPad Prism version 8.0 for Windows, GraphPad Software, San Diego, California, USA (www.graphpad.com). The response was expressed on the Y-axis as a percentage of enzymatic activity, and the […].
(§3) The inhibitory mechanism of TPIS (3) was determined by studying the dependence between the main kinetic parameters (K Mapp and V maxapp) and the inhibitor concentrations. Data obtained were fitted using the Michaelis–Menten equation and a nonlinear fitting software. Then, data were analyzed using the double reciprocal plot (Lineweaver–Burk method). Secondary plots were used to calculate the K i values by using GraphPad Prism version 8.0. In detail, the inhibitory mechanism of TPIS (3) was analyzed using 0, 25, 60, and 100 μM inhibitors for Lscβ and 0, 10, 25, and 100 μM for Lscγ. For each concentration, we set the sucrose concentration to 0, 10, 30, 50, 100, 200, 400, and 600 mM, and reactions were performed as previously described using an enzyme concentration of 0.02 μg/μL. After the reactions were stopped, glucose from enzymatic hydrolysis was quantified using the DNS method.

[2] = molecular target: T2, Lscγ (Pseudomonas syringae pv. actinidiae, UniProt A0A2V0R8Y2); assay: Sucrose hydrolysis assay on recombinant Lscγ (DNS glucose quantification); assay type: biochemical, Pseudomonas syringae pv actinidiae biovar 3 (Psa3); conditions: for % Residual activity (sucrose hydrolysis), Lscγ: 100 μM iminosugar; for % Residual activity (sucrose hydrolysis), Lscγ / IC50: 60 mM sucrose
T2 construct: 6His-tag (TEV-cleavable) (cleaved yes); made in house; host or cells: E. coli BL21 (DE3)
T2 sequence (A0A2V0R8Y2 whole entry): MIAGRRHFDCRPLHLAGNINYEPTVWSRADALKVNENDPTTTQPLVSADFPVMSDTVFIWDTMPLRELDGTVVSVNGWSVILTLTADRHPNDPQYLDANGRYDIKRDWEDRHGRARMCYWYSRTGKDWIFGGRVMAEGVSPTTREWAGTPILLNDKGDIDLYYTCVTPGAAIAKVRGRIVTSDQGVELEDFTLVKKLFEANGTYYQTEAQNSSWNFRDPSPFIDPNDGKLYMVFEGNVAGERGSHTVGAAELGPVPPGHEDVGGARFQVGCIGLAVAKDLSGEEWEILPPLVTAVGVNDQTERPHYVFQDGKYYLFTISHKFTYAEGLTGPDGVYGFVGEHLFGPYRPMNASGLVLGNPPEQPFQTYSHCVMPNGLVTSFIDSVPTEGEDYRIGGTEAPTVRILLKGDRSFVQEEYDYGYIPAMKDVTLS
Experimental: as §1
The enzymatic assays to detect the inhibitory potential of the compounds on sucrose hydrolysis activity of Lscβ and Lscγ were performed according to Luti et al. 2021 in a total volume of 100 μL, using a Bis/Tris buffer (50 mM, pH 7.0). The experiments were performed at an enzyme concentration of 0.03 μg/μL with 60 mM sucrose and a final inhibitor concentration (compounds 1–4) of 100 μM, on a 10-min time frame. After the reactions were stopped, glucose concentration was measured using the DNS (3,5-dinitrosalicylic acid) method to determine spectrophotometrically the inhibitory activity of each compound. The enzymatic activity, measured as μmol/min·mL, was expressed as %residual enzymatic activity=[Ai/Ac]×100 , where A i is the absorbance of the samples with the inhibitors and A c is the absorbance of the control.
as §2, §3

[3] = tested on: KL103 whole cell lysate; assay: Sucrose hydrolysis by whole cell lysate, KL103; assay type: biochemical, P. syringae pv actinidiae biovar 3; conditions: 100 μM, 60 mM sucrose
Experimental: (§4) The strains CFBP8414 (P. syringae pv actinidiae biovar 5) and CFBP1390 (P. syringae pv phaseolicola) were purchased from the CIRM-CFBP French Collection for Plant Associated Bacteria, while KL103 (P. syringae pv actinidiae biovar 3) was isolated in Tuscany in 2015, as reported by Campigli et al., 2023.
(§5) Bacterial cells were grown in 50 mL of Nutrient Sucrose (5% w/v) for 48 h at 180 rpm at 27 °C. Cell suspensions were diluted to an A 600 of 1 (10^7 cfu/mL) in water, and 1 mL aliquots were centrifuged for 5 min at 15,000 × g at 4 °C. The supernatant was discarded, while the pellet was stored at −20 °C for further analysis.
(§6) To extract total protein, cell pellets were resuspended in 1 mL of ice-cold RIPA Buffer with Protease Inhibitors Cocktail, and cells were lysed by sonication using a Fisher Scientific Model 120 Sonic Dismembrator. The sonication step was carried out on ice with three pulses of 15 s at 30% amplitude, each followed by 30 s cooldown. Sonicated samples were cleared by centrifugation for 15 min at 15,000 × g at 4 °C. The pellet was discarded, while the supernatant was collected and stored at −20 °C for further analysis. The hydrolysis enzymatic reaction was carried out as previously described with 60 mM sucrose and 7 μL of cell lysate for 1.5 h. After the samples were boiled, glucose was quantified using the DNS method. […]

[4] = tested on: CFBP1390 whole cell lysate; assay: Macroscopic levan synthesis by lysate on agar sucrose plate, CFBP1390; assay type: biochemical, P. syringae pv phaseolicola; conditions: 100 μM, 72 h
Experimental: (§7) To extract total protein, cell pellets were resuspended in 1 mL of ice-cold RIPA Buffer with Protease Inhibitors Cocktail, and cells were lysed by sonication using a Fisher Scientific Model 120 Sonic Dismembrator. The sonication step was carried out on ice with three pulses of 15 s at 30% amplitude, each followed by 30 s cooldown. Sonicated samples were cleared by centrifugation for 15 min at 15,000 × g at 4 °C. The pellet was discarded, while the supernatant was collected and stored at −20 °C for further analysis. The hydrolysis enzymatic reaction was carried out as previously described with 60 mM sucrose and 7 μL of cell lysate for 1.5 h. After the samples were boiled, glucose was quantified using the DNS method. For macroscopic evaluation of levan synthesis inhibition, a 10 μL drop of lysates was applied on an agar sucrose (5% w/v) plate alone or with 100 μM TPIS (3). A picture was taken after 72 h at 4 °C.

[5] = molecular target: T2, Lscγ; assay: Levan synthesis turbidity assay with Lscγ; assay type: biochemical, Pseudomonas syringae pv actinidiae biovar 3 (Psa3)
Experimental: (§8) Inhibition of levan synthesis was monitored using a turbidity assay on a microtiter plate as reported by Luti et al. 2021 with slight modifications. The reaction was performed at 37 °C in 200 μL of 50 mM sodium acetate buffer at pH 5.0 containing 60 mM sucrose and 10 μg of purified Lscγ protein per mL of reaction mixture. The turbidity of the samples at 400 nm was recorded every 5 min using a BioTek Synergy H1 Hybrid Multimode Reader. The percent inhibition was determined at 60 min of incubation, at the maximum absorbance, and was determined as defined in the previous section, Sucrose Hydrolysis Assay. For the IC50 determinations, we used a 0–200 μM TPIS (3) concentration and defined the activity as previously reported. For macroscopic evaluation of levan synthesis inhibition, a 10 μL drop of 1 μg/μL Lscγ was applied on an agar sucrose (5% w/v) plate alone or with 100 μM TPIS (3). A picture was taken after 24 h at 4 °C.

[6] = tested on: KL103 whole cell lysate; assay: Macroscopic levan synthesis by lysate on agar sucrose plate, KL103; assay type: biochemical, P. syringae pv actinidiae biovar 3; conditions: 100 μM, 72 h
Experimental: as §7

[7] = tested on: CFBP8414 whole cell lysate; assay: Sucrose hydrolysis by whole cell lysate, CFBP8414; assay type: biochemical, P. syringae pv actinidiae biovar 5; conditions: 100 μM, 60 mM sucrose
Experimental: as §4, §5, §6

[8] = tested on: CFBP1390 whole cell lysate; assay: Sucrose hydrolysis by whole cell lysate, CFBP1390; assay type: biochemical, P. syringae pv phaseolicola; conditions: 100 μM, 60 mM sucrose
Experimental: as §4, §5, §6

[9] = tested on: CFBP8414 whole cell lysate; assay: Macroscopic levan synthesis by lysate on agar sucrose plate, CFBP8414; assay type: biochemical, P. syringae pv actinidiae biovar 5; conditions: 100 μM, 72 h
Experimental: as §7

[10] = molecular target: T2, Lscγ; assay: Macroscopic evaluation of levan synthesis by Lscγ on agar sucrose plate; assay type: biochemical, Pseudomonas syringae pv actinidiae biovar 3 (Psa3); conditions: 100 μM, 10 μL drop of 1 μg/μL Lscγ, 24 h
Experimental: as §8

[11] = molecular target: Jack bean α-mannosidase; conditions: cited from earlier work

## OC[C@H]1NC[C@@H](O)[C@@H]1O [Compound 1, 1,4-dideoxy-1,4-imino-D-arabinitol]
[1]; pH 7.0
  % Residual activity (sucrose hydrolysis), Lscβ: 103 ± 6%
  IC50: > 100 µM
[1]; pH 7.0, listed as DAB-1 (1)
  % Residual activity (sucrose hydrolysis), Lscβ: do not affect Lscβ activity at all
[2]; pH 7.0
  % Residual activity (sucrose hydrolysis), Lscγ: 101 ± 12%
  IC50: > 100 µM

## OC[C@@H]1[C@@H](O)[C@H](O)CN1CCCCCCn1cc(COCC(COCc2cn(CCCCCCN3C[C@@H](O)[C@H](O)[C@H]3CO)nn2)(COCc2cn(CCCCCCN3C[C@@H](O)[C@H](O)[C@H]3CO)nn2)COCc2cn(CCCCCCN3C[C@@H](O)[C@H](O)[C@H]3CO)nn2)nn1 [Compound 3]
[3]
  residual sucrose hydrolysis activity, KL103 lysate: 54 ± 7%
[4]
  macroscopic levan synthesis, CFBP1390 lysate: able to limit levan synthesis
[5]; 100 μM, pH 5.0, 60 min
  residual polymerization activity (levan production), Lscγ: 46 ± 3%
[5]; pH 5.0, 60 min of incubation, estimated, read-out: IC50, polymerization activity of Lscγ
  IC50: 37 µM
[6]
  macroscopic levan synthesis, KL103 lysate: able to limit levan synthesis
[7]
  residual sucrose hydrolysis activity, CFBP8414 lysate: 44 ± 11%
[1]; pH 7.0
  % Residual activity (sucrose hydrolysis), Lscβ: 49 ± 5%
  IC50: 22 µM and 22.4 µM
[1]; KMapp increases, Vmaxapp does not vary, versus sucrose
  inhibition mechanism, Lscβ: competitive inhibitor
[1]; secondary plot, pH 7.0, read-out: K i, sucrose hydrolysis, Lscβ
  Ki: 29 µM
[1]; sucrose hydrolysis
  rp/n (rp divided by valency), Lscβ: > 11
[8]
  residual sucrose hydrolysis activity, CFBP1390 lysate: 55 ± 3%
[9]
  macroscopic levan synthesis, CFBP8414 lysate: able to limit levan synthesis
[10]
  macroscopic levan production by Lscγ on agar sucrose plate: limits levan production
[11]; already demonstrated in earlier work
  IC50: 34 µM
[11]; relative potency with respect to monovalent counterpart per active unit, earlier work
  rp/n, Jack bean α-mannosidase: 10
[2]; pH 7.0
  % Residual activity (sucrose hydrolysis), Lscγ: 36 ± 5%
  IC50: 60.9 µM
[2]; KMapp increases, Vmaxapp not affected, versus sucrose
  inhibition mechanism, Lscγ: competitive inhibitor
[2]; secondary plot, pH 7.0, read-out: K i, sucrose hydrolysis, Lscγ
  Ki: 20 µM

## OC[C@@H]1[C@@H](O)[C@H](O)CN1CCO[C@@H]1O[C@H](CO)[C@@H](O)[C@H](O)[C@H]1O [Compound 2]
[1]; pH 7.0
  IC50: > 100 µM
[2]; pH 7.0
  % Residual activity (sucrose hydrolysis), Lscγ: 85 ± 8%
  IC50: > 100 µM

## OCCc1cn(CCCCCCN2C[C@@H](O)[C@H](O)[C@H]2CO)nn1 [Compound 4]
[1]; pH 7.0
  % Residual activity (sucrose hydrolysis), Lscβ: 93 ± 12%
  IC50: > 1000 µM
[1]; pH 7, read-out: inhibitory activity on sucrose hydrolysis, Lscβ
  inhibition at 100 µM: ~7%
[1]; read-out: residual activity at 1 mM, Lscβ
  remaining activity at 1000 µM: 40%
[2]; pH 7.0
  % Residual activity (sucrose hydrolysis), Lscγ: 126 ± 50%
  IC50: > 1000 µM
[2]; pH 7.0, listed as PIS (4)
  % Residual activity (sucrose hydrolysis), Lscγ: does not inhibit

## OC[C@H]1O[C@@](CO)(O[C@H]2O[C@H](CO)[C@@H](O)[C@H](O)[C@H]2O)[C@@H](O)[C@@H]1O [Sucrose]
[1]; substrate, pH 7.0
  KMapp of Lscβ for sucrose: KMapp (mM) 57 ± 11
[2]; substrate, pH 7.0
  KMapp of Lscγ for sucrose: KMapp(mM) 59 ± 12
